Measured values: PubChem BioAssay AID1963423 (Molecular Pharmacology Branch, DTP, NCI, 2024)

Test system: 439559-082-T-J2-PDC complex spheroid growth
Test: Anticancer human tumor 439559-082-T-J2-PDC patient-derived colon adenocarcinoma cell line growth inhibition [Asc]
Conditions: for IC50: curve of first compound; for viability, T/C: stronger effect = lower value
Procedure: Multicellular complex tumor spheroid response to apoptosis pathway targeting inhibitors Alrizomadlin, Pelcitoclax, and Dasminapant in combination with a variety of drugs and investigational agents in selected tumor cell lines
The MDM2 inhibitor alrizomadlin, the Bcl-2/Bcl-xL inhibitor pelcitoclax, and the IAPs inhibitor dasminapant were evaluated both individually and in combination with standard of care and investigational anticancer small molecules within a complex spheroid model of solid tumors. . Complex spheroids include a stromal component modeled by human endothelial cells (HUVEC) and fibroblasts modeled by human mesenchymal stem cells (MSCs). The concentration ranges selected for each drug and investigational agent were based upon clinically achievable concentrations if the clinical Cmax of the agent was known.
Compounds. The drugs and investigational agents: alrizomadlin (APG-115; NSC831270), pelcitoclax (APG-1252; NSC835773), dasminapant (APG-1387;NSC834197), TAK-243 (NSC785004), copanlisib (NSC809693), olaparib (NSC753686), talazoparib (NSC767125), cobimetinib (NSC 768068), eltanexor (KPT-8602, NSC 794443), abemaciclib (NSC 768073), sotorasib (NSC818433), adagrasib (NSC 831453), MRTX-1133 (NSC 836407), Iadademestat (ORY1001, NSC 806812), and RMC-4630 (NSC839698), were obtained from the NCI Developmental Therapeutics Program Chemical Repository. The FDA-approved anticancer drug set is available from the Developmental Therapeutics Program at https://dtp.cancer.gov/organization/dscb/obtaining/available plates.htm. […] The stock solutions were prepared in dimethyl sulfoxide (DMSO, Sigma-Aldrich, St. Louis, MO, cat. D2650) at 800-fold the tested concentration and stored at -70 degrees C prior to their use. All drugs and investigational agents were tested over a range starting from a high concentration at or near the clinical Cmax and decreasing in half-log increments. If the clinical Cmax for an agent had not been determined, the highest concentration tested was 10 microM.
The patient-derived cancer (PDC) cell lines include five colon adenocarcinomas: 186277-243-T-J2-PDC, 616215-338-R-J1-PDC, 439559-082-T-J2-PDC, 463943-066-T-J2-PDC, and 519858-162-T-J1-PDC; three pancreatic carcinomas: 323965-272-R-J2-PDC, 521955-158-R6-J3-PDC, and 521955-158-R2-J5-PDC; two uterine sarcomas: 327498-152-R-J2-PDC and 993429-296-R-J1-PDC; two rhabdomyosarcomas: 755483-174-R-J1-PDC and 772245-204-R-J1-PDC; two soft tissue sarcomas: 126254-015-R-J1-PDC and 494315-158-R-J1-PDC; two malignant fibrous histiocytomas: 317291-083-R-J1-PDC and 596521-263-R-J1-PDC; two breast carcinomas: 171881-019-R-J1-PDC and 885512-296-R-J2-PDC; and one ovarian carcinoma: 6556581-035-R-J-PDC were obtained from the NCI PDMR, (https://pdmr.cancer.gov). The established cell lines HSSY-2 synovial sarcoma (RRID:CVCL 8719), SYO-1 synovial sarcoma (RRID:CVCL_7146), MPNST malignant peripheral neural sheath tumor were obtained from the Sloan Kettering Institute. The following established cell lines were purchased from the American Type Culture Collection (ATCC, Manassas, VA), Sor the received from the NCI repository:, PANC-1 pancreatic carcinoma (CRL-1469, RRID:CVCL_0480), OVCAR-5 ovarian carcinoma (RRID:CVCL_1628), OVCAR-8 ovarian carcinoma (RRID:CVCL_1629), , MCF-7 breast carcinoma (CRL-12584, RRID:CVCL_0031), MDA-MB-231 breast carcinoma (CRL-12532, RRID:CVCL_0062), NCI-H1876 small cell lung carcinoma (CRL-5902, RRID:CVCL_1503), NCI-H510A small cell lung carcinoma (HTB-184, RRID:CVCL_1565), NCI-H1417 (CRL-5869, RRID:CVCL_1469), and NCI-H196 small cell lung carcinoma (CRL-5823, RRID:CVCL_1509). Dr. Peter Houghton (Greehey Children's Cancer Research Institute, University of Texas Health Science Center, San Antonio, TX) provided Rh-18 rhabdomyosarcoma (RRID:CVCL_1659). Pooled donor human umbilical vein endothelial cells (HUVEC, Lonza, cat. CC-2519) and human mesenchymal stem cells (hMSC, Lonza, cat. PT-2501) were purchased from Lonza (Walkersville, MD).
Cell Culture. […]

[1] = second compound 0.03 µM, first compound 0.00316 µM
[2] = second compound 0.03 µM, first compound 0.01 µM
[3] = second compound 0.03 µM, first compound 0.0316 µM
[4] = second compound 0.03 µM, first compound 0.1 µM
[5] = second compound 0.0949 µM, first compound 0.00316 µM
[6] = second compound 0.0949 µM, first compound 0.01 µM
[7] = second compound 0.0949 µM, first compound 0.0316 µM
[8] = second compound 0.0949 µM, first compound 0.1 µM
[9] = second compound 0.3 µM, first compound 0.00316 µM
[10] = second compound 0.3 µM, first compound 0.01 µM
[11] = second compound 0.3 µM, first compound 0.0316 µM
[12] = second compound 0.3 µM, first compound 0.1 µM
[13] = second compound 0.949 µM, first compound 0.00316 µM
[14] = second compound 0.949 µM, first compound 0.01 µM
[15] = second compound 0.949 µM, first compound 0.0316 µM
[16] = second compound 0.949 µM, first compound 0.1 µM
[17] = second compound 3 µM, first compound 0.00316 µM
[18] = second compound 3 µM, first compound 0.01 µM
[19] = second compound 3 µM, first compound 0.0316 µM
[20] = second compound 3 µM, first compound 0.1 µM
[21] = second compound 0.03 µM, first compound 0.316 µM
[22] = second compound 0.03 µM, first compound 1 µM
[23] = second compound 0.0949 µM, first compound 0.316 µM
[24] = second compound 0.0949 µM, first compound 1 µM
[25] = second compound 0.3 µM, first compound 0.316 µM
[26] = second compound 0.3 µM, first compound 1 µM
[27] = second compound 0.949 µM, first compound 0.316 µM
[28] = second compound 0.949 µM, first compound 1 µM
[29] = second compound 3 µM, first compound 0.316 µM
[30] = second compound 3 µM, first compound 1 µM
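Also: spheroids exposed to agents for 7 days starting day 3 after seeding.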
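For viability, T/C in this document: percent of DMSO vehicle control viability with 100% = vehicle.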

| SMILES | IC50 (second compound 0.03 µM) [nM] | IC50 (second compound 0.0949 µM) [nM] | IC50 (second compound 0.3 µM) [nM] | IC50 (second compound 0.949 µM) [nM] | IC50 (second compound 3 µM) [nM] | viability, T/C [1] [%] | viability, T/C [2] [%] | viability, T/C [3] [%] | viability, T/C [4] [%] | viability, T/C [5] [%] | viability, T/C [6] [%] | viability, T/C [7] [%] | viability, T/C [8] [%] | viability, T/C [9] [%] | viability, T/C [11] [%] | viability, T/C [12] [%] | viability, T/C [15] [%] | viability, T/C [16] [%] | viability, T/C [19] [%] | viability, T/C [20] [%] | also measured |
| --- | --- | --- | --- | --- | --- | --- | --- | --- | --- | --- | --- | --- | --- | --- | --- | --- | --- | --- | --- | --- | --- |
| Cn1ncnc1[C@H]1c2n[nH]c(=O)c3cc(F)cc(c23)N[C@@H]1c1ccc(F)cc1 + CCN1C(C(=O)NC23CCC(C(=O)O)(CC2)CC3)C(c2cccc(Cl)c2F)C2(C(=O)Nc3cc(Cl)ccc32)C12CCCCC2 | > 100 | > 100 | > 100 | > 100 | > 100 | 103 | 100 | 101 | 95.3 | 106 | 83.4 | 94.6 | 96.6 | 109 | 96.2 | 101 | 88.3 | 103 | 84.4 | 91.6 | viability, T/C (second compound 0.03 µM, first compound 0.000316 µM): 106%; viability, T/C (second compound 0.03 µM, first compound 0.001 µM): 109%; viability, T/C (second compound 0.0949 µM, first compound 0.000316 µM): 103%; viability, T/C (second compound 0.0949 µM, first compound 0.001 µM): 104%; viability, T/C (second compound 0.3 µM, first compound 0.000316 µM): 98.8%; viability, T/C (second compound 0.3 µM, first compound 0.001 µM): 113%; viability, T/C [10]: 86.2%; viability, T/C (second compound 0.949 µM, first compound 0.000316 µM): 107%; viability, T/C (second compound 0.949 µM, first compound 0.001 µM): 111%; viability, T/C [13]: 108%; viability, T/C [14]: 99%; viability, T/C (second compound 3 µM, first compound 0.000316 µM): 89%; viability, T/C (second compound 3 µM, first compound 0.001 µM): 94.7%; viability, T/C [17]: 101%; viability, T/C [18]: 86.6% |
| O=C(c1cc(Cc2n[nH]c(=O)c3ccccc23)ccc1F)N1CCN(C(=O)C2CC2)CC1 + CCN1C(C(=O)NC23CCC(C(=O)O)(CC2)CC3)C(c2cccc(Cl)c2F)C2(C(=O)Nc3cc(Cl)ccc32)C12CCCCC2 | > 10000 | > 10000 | > 10000 | > 10000 | > 10000 | – | – | 106 | 103 | – | – | 104 | 113 | – | 99.5 | 112 | 109 | 107 | 90.5 | 100 | viability, T/C [21]: 105%; viability, T/C [22]: 87.5%; viability, T/C (second compound 0.03 µM, first compound 3.16 µM): 97.1%; viability, T/C (second compound 0.03 µM, first compound 10 µM): 87.8%; viability, T/C [23]: 104%; viability, T/C [24]: 96.5%; viability, T/C (second compound 0.0949 µM, first compound 3.16 µM): 93.4%; viability, T/C (second compound 0.0949 µM, first compound 10 µM): 100%; viability, T/C [25]: 111%; viability, T/C [26]: 85%; viability, T/C (second compound 0.3 µM, first compound 3.16 µM): 91%; viability, T/C (second compound 0.3 µM, first compound 10 µM): 94.9%; viability, T/C [27]: 113%; viability, T/C [28]: 89.6%; viability, T/C (second compound 0.949 µM, first compound 3.16 µM): 90.4%; viability, T/C (second compound 0.949 µM, first compound 10 µM): 94.9%; viability, T/C [29]: 104%; viability, T/C [30]: 86.7%; viability, T/C (second compound 3 µM, first compound 3.16 µM): 88.6%; viability, T/C (second compound 3 µM, first compound 10 µM): 88.8% |
| O=C(c1ccc(F)c(F)c1Nc1ccc(I)cc1F)N1CC(O)([C@@H]2CCCCN2)C1 + CCN1C(C(=O)NC23CCC(C(=O)O)(CC2)CC3)C(c2cccc(Cl)c2F)C2(C(=O)Nc3cc(Cl)ccc32)C12CCCCC2 | 223 | 233 | 235 | 172 | 97.6 | 103 | 101 | 83.8 | 61.6 | 111 | 106 | 84.8 | 58.2 | 98.7 | 91.7 | 64.3 | 88.4 | 54.5 | 78.1 | 47 | viability, T/C [21]: 46.9%; viability, T/C [22]: 22.5%; viability, T/C [23]: 52.6%; viability, T/C [24]: 16.3%; viability, T/C [10]: 110%; viability, T/C [25]: 47.2%; viability, T/C [26]: 8.43%; viability, T/C [13]: 111%; viability, T/C [14]: 93.5%; viability, T/C [27]: 41.1%; viability, T/C [28]: 16.2%; viability, T/C [17]: 96.8%; viability, T/C [18]: 81.7%; viability, T/C [29]: 27%; viability, T/C [30]: 12.2% |
